Here are results for 8 molecules from PubChem BioAssay (NCI).

Test systems include TK-10 renal; DU-145 prostate; SNB-75 CNS; CCRF-CEM leukemia; KM12 colon; NCI-H460 lung; MDA-MB-435; UACC-257 melanoma; HCT-116 colon; RXF 393 renal.
Test in all cases: DTP human tumour cell line panel, 48 h

Several values for one entry are separate records, joined by “and”; a condition that tells them apart may be missing. Equal entries are not always repeated.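 How tested: cells in 96-well plates exposed to compound for 48 hours at five concentrations. Here, GI50 denotes the concentration required for 50% inhibition of growth. TGI: concentration producing complete growth inhibition.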 Some results are limits rather than exact numbers.

Consider `c1ccc(-c2cn(-c3ccccc3)c(-c3ccccc3)n2)cc1`, for which the GI50 in the assay on TK-10 renal is 14.7 µM; in the assay on DU-145 prostate it was 11.6 µM; in the assay with SNB-75 CNS it was 14 µM; in the assay with CCRF-CEM leukemia, 2.75 µM; in the assay with KM12 colon, 2.19 µM; in the assay with NCI-H460 lung, 13.8 µM. The GI50 in the assay on MDA-MB-435 was 7.58 µM; in the assay with UACC-257 melanoma, 13.4 µM; with HCT-116 colon, 1.76 µM; in the assay with RXF 393 renal it was 17.5 µM. In addition, the TGI in the assay on TK-10 renal is 30.9 µM; in the assay on DU-145 prostate it was 23.8 µM; with SNB-75 CNS, 27.7 µM; in the assay with CCRF-CEM leukemia it was 7.06 µM; with KM12 colon it was 4.67 µM; in the assay on NCI-H460 lung, 29.7 µM. In addition, the TGI in the assay on MDA-MB-435 worked out at 24.7 µM; in the assay with UACC-257 melanoma, 26.1 µM; with HCT-116 colon it was 3.27 µM; in the assay on RXF 393 renal it was 33.9 µM.
As to `CCC(C)CC(C)C(=O)c1c(O)ccn(O)c1=O` (stereo not given), the GI50 in the assay with TK-10 renal was 17.8 µM; with DU-145 prostate it was 2.1 µM; with SNB-75 CNS it was 4.12 µM; in the assay on CCRF-CEM leukemia it was 0.6 µM; with KM12 colon it was 3.37 µM; in the assay on NCI-H460 lung, 0.447 µM. Besides, the GI50 in the assay on MDA-MB-435 is 1.87 µM; with UACC-257 melanoma, 2.52 µM; with HCT-116 colon, 1.08 µM; in the assay with RXF 393 renal, 2.33 µM. Besides, the TGI is above 100 µM with TK-10 renal; above 100 µM with DU-145 prostate; above 100 µM with SNB-75 CNS; above 100 µM in the assay with CCRF-CEM leukemia; above 100 µM with KM12 colon; 11.6 µM in the assay on NCI-H460 lung. In addition, the TGI with MDA-MB-435 was above 100 µM; in the assay on UACC-257 melanoma, 8.38 µM; in the assay with HCT-116 colon, above 100 µM; in the assay with RXF 393 renal it was above 100 µM.
With `NS(=O)(=O)c1ccc(N=C2C(=O)Nc3ccccc32)cc1`, the TGI in the assay with TK-10 renal, in the assay with DU-145 prostate, in the assay with SNB-75 CNS, in the assay on CCRF-CEM leukemia, in the assay on KM12 colon and in the assay on NCI-H460 lung was above 100 µM in each case. The TGI in the assay with MDA-MB-435 was 72.7 µM; with UACC-257 melanoma, above 100 µM; in the assay with HCT-116 colon, above 100 µM; with RXF 393 renal it was above 100 µM.
Take `COc1ccc(/C=C/C(=O)c2ccc(Nc3nc(Nc4ccc(F)cc4)nc(Nc4ccc(Cl)cc4)n3)cc2)cc1`: the GI50 in the assay on TK-10 renal is above 100 µM; in the assay with DU-145 prostate, above 100 µM; in the assay with SNB-75 CNS, 16.2 µM; in the assay on CCRF-CEM leukemia it was 37.4 µM; with KM12 colon, above 100 µM; in the assay on NCI-H460 lung, 9.91 µM. Further, the GI50 in the assay on MDA-MB-435 was above 100 µM; in the assay with UACC-257 melanoma, above 100 µM; with HCT-116 colon, 39.9 µM; in the assay with RXF 393 renal, 13 µM. For the same molecule, the TGI is above 100 µM in the assay with TK-10 renal; above 100 µM with DU-145 prostate; 45.8 µM in the assay on SNB-75 CNS; above 100 µM in the assay with CCRF-CEM leukemia; above 100 µM in the assay with KM12 colon; 84.3 µM in the assay on NCI-H460 lung. Besides, the TGI in the assay with MDA-MB-435, in the assay with UACC-257 melanoma, with HCT-116 colon and in the assay with RXF 393 renal was above 100 µM throughout.
Take `O=C(c1cccs1)c1nc2cc(Cl)ccc2[n+]([O-])c1C(F)(F)F`: the GI50 in the assay on TK-10 renal is above 100 µM; with DU-145 prostate, above 100 µM; in the assay with SNB-75 CNS, 57.3 µM; with CCRF-CEM leukemia it was above 100 µM; with KM12 colon, 85.4 µM; in the assay on NCI-H460 lung it was 91.9 µM. Moreover, the GI50 was above 100 µM with MDA-MB-435, 49.9 µM in the assay with UACC-257 melanoma, 23.2 µM in the assay with HCT-116 colon and 44.3 µM in the assay with RXF 393 renal. Moreover, the TGI in the assay with TK-10 renal, in the assay on DU-145 prostate, with SNB-75 CNS, in the assay with CCRF-CEM leukemia, with KM12 colon and in the assay on NCI-H460 lung was above 100 µM in each case. For the same molecule, the TGI in the assay on MDA-MB-435, in the assay on UACC-257 melanoma, in the assay with HCT-116 colon and with RXF 393 renal was above 100 µM throughout.
On to `O=C(Cc1ccc(Nc2ccnc(C(F)(F)F)c2)cc1)N/N=C/c1ccccc1O`, for which the GI50 is 4.43 µM in the assay on TK-10 renal; 3.17 µM in the assay on DU-145 prostate; 4.81 µM in the assay with SNB-75 CNS; 0.716 µM in the assay on CCRF-CEM leukemia; 2.09 µM in the assay with KM12 colon; 1.37 µM in the assay on NCI-H460 lung. In addition, the GI50 is 3.67 µM in the assay on MDA-MB-435, 3.18 µM in the assay on UACC-257 melanoma, 1.92 µM in the assay on HCT-116 colon and 3.95 µM in the assay on RXF 393 renal. The TGI is above 45.3 µM in the assay on TK-10 renal; above 58.1 µM in the assay on DU-145 prostate; 79.3 µM with SNB-75 CNS; 8.31 µM in the assay with CCRF-CEM leukemia; 15.5 µM in the assay on KM12 colon; 10.6 µM with NCI-H460 lung. Also, the TGI was above 77.5 µM with MDA-MB-435, above 28.7 µM with UACC-257 melanoma, above 39.6 µM in the assay with HCT-116 colon and 38.7 µM in the assay on RXF 393 renal.
In the case of `O=C(O)c1ccc(C(=O)O)c(C(=O)O)c1.[NH-]C1CCCCC1[NH-].[Pt+2]`, the GI50 is 25.6 µM in the assay on TK-10 renal; 11.1 µM with DU-145 prostate; 18 µM with SNB-75 CNS; 0.858 µM and 4.49 µM in the assay on CCRF-CEM leukemia; 14.3 µM with KM12 colon; 0.889 µM with NCI-H460 lung. Further, the GI50 in the assay on MDA-MB-435 was 3.83 µM; in the assay on UACC-257 melanoma, 15.4 µM; in the assay on HCT-116 colon it was 1.07 µM; with RXF 393 renal, 9.32 µM. Also, the TGI was determined as 85.8 µM in the assay with TK-10 renal; 84.1 µM in the assay with DU-145 prostate; 78.9 µM in the assay on SNB-75 CNS; 66.8 µM in the assay on CCRF-CEM leukemia; 74.6 µM with KM12 colon; 19.1 µM in the assay with NCI-H460 lung. The TGI was 30.4 µM in the assay on MDA-MB-435, 61.6 µM with UACC-257 melanoma, 47.3 µM in the assay on HCT-116 colon and 44.7 µM with RXF 393 renal.
Take `O=C1/C(=C\c2ccccc2)CN(C(=O)c2ccccc2)C/C1=C\c1ccccc1`: the GI50 with TK-10 renal is 2.83 µM; in the assay on DU-145 prostate it was 5.02 µM; in the assay on SNB-75 CNS it was 7.24 µM; in the assay on CCRF-CEM leukemia, 1.43 µM; with KM12 colon, 1.79 µM; in the assay on NCI-H460 lung, 2.8 µM. The GI50 is 1.61 µM in the assay on MDA-MB-435, 2 µM in the assay on UACC-257 melanoma, 0.321 µM in the assay with HCT-116 colon and 1.68 µM with RXF 393 renal. In addition, the TGI came to 9.06 µM in the assay with TK-10 renal; 16.4 µM in the assay on DU-145 prostate; 22 µM with SNB-75 CNS; 6.49 µM in the assay with CCRF-CEM leukemia; 3.4 µM in the assay on KM12 colon; 8.48 µM in the assay with NCI-H460 lung. The TGI turned out to be 5 µM in the assay on MDA-MB-435, 5.16 µM in the assay with UACC-257 melanoma, 1.1 µM in the assay on HCT-116 colon and 3.21 µM with RXF 393 renal.

What is called GI50 is the concentration giving 50% growth inhibition. Broadly, the TGI is the concentration giving total growth inhibition. Higher therefore signals less potent growth arrest.
